Assay results taken from patent US20060069132A1, “Azolecarboxamide herbicides” (priority 2004, published 2006).

Experiments:
wheat = assay: Test B postemergence herbicide test; type: in vivo, Triticum aestivum; set-up: key to Wheat plant response rating: 0 = no effect, 100 = complete control; conditions: postemergence, visual rating, scale 0 (no effect) to 100 (complete control)
In short: (§1)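 Plants grow to 1- to 4-leaf stage (2–18 cm) for postemergence spraying, or to 2-leaf stage for the paddy test. Formulated compound is applied. Greenhouse holding lasts 13–15 days. Response is scored visually relative to controls, 0 no effect to 100 complete control; a dash means no result.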

lambsquarters = assay: Test B pre-/postemergence herbicide test; type: in vivo, Chenopodium album; conditions: for Plant response rating, Lambsquarters: preemergence; for Lambsquarters plant response rating: postemergence, visual rating, scale 0 (no effect) to 100 (complete control)
In short: (§2)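 Seeds were planted and treated preemergence with compounds formulated in a non-phytotoxic solvent mixture containing surfactant, while plants at the 1- to 4-leaf stage (2 to 18 cm) received postemergence sprays. Flooded paddy plants were grown to the 2-leaf stage. After 13 to 15 days in a greenhouse, injury was visually rated 0–100 against untreated controls.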

[1] = tested on: small flower umbrella sedge; assay: Test B flooded paddy test; type: in vivo, Cyperus difformis; conditions: 1000 g ai/ha, visual rating, scale 0 to 100 (0 no effect, 100 complete control), 13 to 15 days
In short: (§3)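 After treating 2-leaf paddy plants or 2–18 cm postemergence plants (1 to 4 leaves) with formulated chemical, researchers kept them in a greenhouse for 13–15 days. Effects were judged visually versus controls: 0 indicates none, 100 total control.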

corn = assay: Test B pre-/postemergence herbicide test; type: in vivo, Zea mays; conditions: for Plant response rating, Corn: preemergence; for Corn plant response rating: postemergence, visual rating, scale 0 (no effect) to 100 (complete control)
In short: as §2

barnyardgrass [2] = assay: Test B pre-/postemergence herbicide test; type: in vivo, Echinochloa crus-galli; conditions: for Plant response rating, Barnyardgrass: preemergence; for Barnyardgrass plant response rating: postemergence, visual rating, scale 0 (no effect) to 100 (complete control)
In short: (§4)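 Flooded paddy rice and barnyardgrass were treated at the 2-leaf stage; upland plantings received compound either on sown seed or on 1- to 4-leaf seedlings. All were kept 13–15 days in a greenhouse and scored visually, 0–100, relative to untreated plants.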

ducksalad = assay: Test B flooded paddy test; type: in vivo, Heteranthera limosa; conditions: 1000 g ai/ha, visual rating, scale 0 to 100 (0 no effect, 100 complete control), 13 to 15 days
In short: as §3

wild oat = assay: Test B postemergence herbicide test; type: in vivo, Avena fatua; conditions: postemergence, visual rating, scale 0 (no effect) to 100 (complete control)
In short: as §1

Surinam grass = assay: Test B pre-/postemergence herbicide test; type: in vivo, Urochloa decumbens; conditions: for Plant response rating, Surinam Grass: preemergence; for Surinam Grass plant response rating: postemergence, visual rating, scale 0 (no effect) to 100 (complete control)
In short: as §2

rice = assay: Test B flooded paddy test; type: in vivo, Oryza sativa; conditions: 1000 g ai/ha, visual rating, scale 0 to 100 (0 no effect, 100 complete control), 13 to 15 days
In short: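 Visual ratings, 0 (no effect) to 100 (complete control), made versus controls after 13–15 d greenhouse. Paddy plants treated at 2-leaf stage; postemergence plants at 1- to 4-leaf stage, 2–18 cm tall.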

morningglory = assay: Test B pre-/postemergence herbicide test; type: in vivo, Ipomoea coccinea; conditions: for Plant response rating, Morningglory: preemergence; for Morningglory plant response rating: postemergence, visual rating, scale 0 (no effect) to 100 (complete control)
In short: as §4

pigweed = assay: Test B pre-/postemergence herbicide test; type: in vivo, Amaranthus retroflexus; conditions: for Plant response rating, Pigweed: preemergence; for Pigweed plant response rating: postemergence, visual rating, scale 0 (no effect) to 100 (complete control)
In short: as §2

cocklebur = assay: Test B pre-/postemergence herbicide test; type: in vivo, Xanthium strumarium; conditions: for Plant response rating, Cocklebur: preemergence; for Cocklebur plant response rating: postemergence, visual rating, scale 0 (no effect) to 100 (complete control)
In short: as §4

barnyardgrass [3] = assay: Test B flooded paddy test; type: in vivo, Echinochloa crus-galli; conditions: 1000 g ai/ha, visual rating, scale 0 to 100 (0 no effect, 100 complete control), 13 to 15 days
In short: as §3

giant foxtail = assay: Test B pre-/postemergence herbicide test; type: in vivo, Setaria faberi; conditions: for Plant response rating, Foxtail, Giant: preemergence; for Foxtail, Giant plant response rating: postemergence, visual rating, scale 0 (no effect) to 100 (complete control)
In short: as §2

large crabgrass = assay: Test B pre-/postemergence herbicide test; type: in vivo, Digitaria sanguinalis; conditions: for Plant response rating, Crabgrass, Large: preemergence; for Crabgrass, Large plant response rating: postemergence, visual rating, scale 0 (no effect) to 100 (complete control)
In short: as §2

blackgrass = assay: Test B postemergence herbicide test; type: in vivo, Alopecurus myosuroides; conditions: postemergence, visual rating, scale 0 (no effect) to 100 (complete control)
In short: as §3

[4] = 500 g ai/ha, visual rating 0-100, 0 no effect, 100 complete control
[5] = 125 g ai/ha, 0 to 100 scale, 0 is no effect, 100 is complete control

With `CCn1nc(C(C)(C)C)cc1C(=O)Nc1cccc(SC(F)(F)F)c1` [Compound 130] the “Wheat plant response rating” value (wheat; 125 g ai/ha) was 20, the “Wheat plant response rating” value (wheat; 500 g ai/ha) was 40 and the “Plant response rating, Lambsquarters” value (lambsquarters; [4]) was 70. The “Lambsquarters plant response rating” value (lambsquarters; 125 g ai/ha) was 90, the “Lambsquarters plant response rating” value (lambsquarters; 500 g ai/ha) was 100 and the “Plant response rating, Lambsquarters” value (lambsquarters; [5]) was 0. The “Sedge, Umbrella plant response rating” value [1] was 0, the “Plant response rating, Corn” value (corn; [4]) was 20 and the “Corn plant response rating” value (corn; 125 g ai/ha) was 20. The “Corn plant response rating” value (corn; 500 g ai/ha) was 40, the “Plant response rating, Corn” value (corn; [5]) was 10 and the “Plant response rating, Barnyardgrass” value (barnyardgrass [2]; [4]) was 70. For the same molecule, the “Barnyardgrass plant response rating” value (barnyardgrass [2]; 125 g ai/ha) was 50, the “Barnyardgrass plant response rating” value (barnyardgrass [2]; 500 g ai/ha) was 80 and the “Plant response rating, Barnyardgrass” value (barnyardgrass [2]; [5]) was 10. For the same molecule, the “Ducksalad plant response rating” value (ducksalad) was 10, the “Oat, Wild plant response rating” value (wild oat; 125 g ai/ha) was 40 and the “Oat, Wild plant response rating” value (wild oat; 500 g ai/ha) was 60. The “Plant response rating, Surinam Grass” value (Surinam grass; [4]) was 80, the “Surinam Grass plant response rating” value (Surinam grass; 125 g ai/ha) was 50 and the “Surinam Grass plant response rating” value (Surinam grass; 500 g ai/ha) was 90. For the same molecule, the “Plant response rating, Surinam Grass” value (Surinam grass; [5]) was 60, the “Rice plant response rating” value (rice) was 0 and the “Plant response rating, Morningglory” value (morningglory; [4]) was 10. For the same molecule, the “Morningglory plant response rating” value (morningglory; 125 g ai/ha) was 100, the “Morningglory plant response rating” value (morningglory; 500 g ai/ha) was 100 and the “Plant response rating, Morningglory” value (morningglory; [5]) was 10. For the same molecule, the “Plant response rating, Pigweed” value (pigweed; [4]) was 100, the “Pigweed plant response rating” value (pigweed; 125 g ai/ha) was 100 and the “Pigweed plant response rating” value (pigweed; 500 g ai/ha) was 100. For the same molecule, the “Plant response rating, Pigweed” value (pigweed; [5]) was 20, the “Plant response rating, Cocklebur” value (cocklebur; [4]) was 0 and the “Cocklebur plant response rating” value (cocklebur; 125 g ai/ha) was 100. The “Cocklebur plant response rating” value (cocklebur; 500 g ai/ha) was 100, the “Plant response rating, Cocklebur” value (cocklebur; [5]) was 0 and the “Barnyardgrass plant response rating” value (barnyardgrass [3]) was 40. For the same molecule, the “Plant response rating, Foxtail, Giant” value (giant foxtail; [4]) was 70, the “Foxtail, Giant plant response rating” value (giant foxtail; 125 g ai/ha) was 20 and the “Foxtail, Giant plant response rating” value (giant foxtail; 500 g ai/ha) was 60. The “Plant response rating, Foxtail, Giant” value (giant foxtail; [5]) was 20, the “Plant response rating, Crabgrass, Large” value (large crabgrass; [4]) was 100 and the “Crabgrass, Large plant response rating” value (large crabgrass; 125 g ai/ha) was 70. The “Crabgrass, Large plant response rating” value (large crabgrass; 500 g ai/ha) was 90, the “Plant response rating, Crabgrass, Large” value (large crabgrass; [5]) was 90 and the “Blackgrass plant response rating” value (blackgrass; 125 g ai/ha) was 20. For the same molecule, the “Blackgrass plant response rating” value (blackgrass; 500 g ai/ha) was 60.
